Patent publication US20150361503A1, “METHODS FOR SELECTING THERAPEUTICS FOR TREATMENT OF HER2+ CANCERS” (Merrimack Pharmaceuticals, Inc., priority 2014, published 2015)

Tested on: HER2+ cell lines
Experiment: In vitro cell growth assays: drug combination effects (CellTiter-Glo cell viability)
Format: cell-based
Protocol: Cells (BT474-M3, NCI-N87, NCI-N87-PIK3CA(wt), NCI-N87-PIK3CA(H1047R), NCI-N87-PIK3CA(E454K), COLO-678, KYSE-410, ZR75-1, MDA-MB-361 or MDA-MB-175-VII) are seeded at 700 cells per 384-well plate in 10% FBS cell growth medium and treated with the five drugs, separately or in combination, at […], with and without 5 nM HRG-β1 pre-stimulation (for four hours). Cell viability was determined 72 hours later with CellTiter-Glo® luminescent cell viability assay (Promega).
This panel included cells harboring PI3KCA-activating mutations (both natural and engineered), PTEN deletions, and KRAS-activating mutations, as well as PI3K and MAPK-wild type cells. To clarify and summarize the drug-response relationships, multivariate regression models were parameterized for each cell line, simulating % cell growth inhibition as linear combinations of the five input drug concentrations. Regression coefficients for each drug were grouped by mutational background and the presence or absence of heregulin stimulation, and average values computed (FIG. 4B).

Compound | sensitivity of PI3K-mutant cells to drug-containing regimens (PI3K-mutant cells (MDA-MB-361, ZR-75-1, and NCI-N87-PIK3CA)) | effect of HRG on sensitivity of cells to the drug (cell growth inhibition) (presence of 5 nM exogenous HRG, regardless of genetic background) | sensitivity of wild-type cells to drug-containing regimens (wild-type cells)
NC1(c2ccc(-c3nc4ccn5c(=O)[nH]nc5c4cc3-c3ccccc3)cc2)CCC1 [MK2206] | most sensitive |  | 
CS(=O)(=O)CCNCc1ccc(-c2ccc3ncnc(Nc4ccc(OCc5cccc(F)c5)c(Cl)c4)c3c2)o1 [lapatinib] |  | desensitizes | most sensitive
